pKd: −log10 of the molar value.

Sequence of CRBN truncate (318-426) (Q96SW2 318-426): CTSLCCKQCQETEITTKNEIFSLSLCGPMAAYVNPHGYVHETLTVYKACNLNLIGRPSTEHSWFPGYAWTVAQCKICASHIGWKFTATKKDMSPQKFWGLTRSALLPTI

This experiment concerns the target CRBN truncate (318-426) (Homo sapiens (Human), UniProt Q96SW2). In words: Measurement of molecular interactions using surface plasmon resonance (SPR), Biacore T200. In kind it is binding. To be noted: 25° C., immobilized CRBN truncate, upper limit of measurement 200 μM. The essentials: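 Compound injections used 60 s association and 120 s dissociation in HEPES pH 7.5 buffer (150 mM NaCl, 1 mM TCEP, 0.005% Tween 20, 2% DMSO). The ligand was CRBN truncate 318-426 bearing a C-terminal Avi-tag, immobilised via streptavidin on an SA sensor chip.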
Background: In SPR one partner is held on a chip, and binding of the other changes the refractive index at the surface.
`CC(C)(C)OC(=O)c1ccc(N2CCN(C3CCCC(=O)NC3=O)C(=O)C2)nc1` (centres unmarked) [Example 30, tert-Butyl 6-[4-(2,7-dioxoazepan-3-yl)-3-oxopiperazin-1-yl]pyridine-3-carboxylate] had a pKd of at most 4.00.
In the case of `O=C1CCCC2(CCN(C(=O)c3ccccc3)C2)C(=O)N1` (centres unmarked) [Example 122, 2-Benzoyl-2,7-diazaspiro [4.6]undecane-6,8-dione], the pKd is at most 4.00.
Compound `O=C1COCC2(CCCN(C(=O)c3ccccc3)C2)C(=O)N1` (centres unmarked) [Example 12-2, 2-Benzoyl-8-oxa-2,11-diazaspiro[5.6]dodecane-10,12-dione] had a pKd of at most 4.00.
`Cc1sc2c(c1C)C(c1ccc(Cl)cc1)=N[C@@H](CC(=O)NCCCCCCCNc1ccc(N3CCC4(CCCC(=O)NC4=O)CC3=O)cc1)c1nnc(C)n1-2` (stereo partly drawn) [Example 314, 2-[(9S)-7-(4-chlorophenyl)-4,5,13-trimethyl-3-thia-1,8,11,12-tetraazatricyclo[8.3.0.02,6]trideca-2(6),4,7,10,12-pentaen-9-yl]-N-[7-[4-(4,7,9-trioxo-3,8-diazaspiro[5.6]dodecan-3-yl)anilino]heptyl]acetamide] had a pKd of over 4.30.
`Cc1cc(N2CCC3(CCCC(=O)NC3=O)C2)ccc1[N+](=O)[O-]` (centres unmarked) [Example 81, 2-(3-Methyl-4-nitrophenyl)-2,7-diazaspiro[4.6]undecane-6,8-dione] showed a pKd of at most 4.00.
In turn, `CC(C)(C)OC(=O)c1ccc(N2CCC3(CCCC(=O)NC3=O)CC2)nc1` [Example 94, tert-Butyl 6-(7,9-dioxo-3,8-diazaspiro [5.6]dodecan-3-yl) pyridine-3-carboxylate] showed a pKd of 4.00 to 4.30.
The compound `Cc1sc2c(c1C)C(c1ccc(Cl)cc1)=N[C@@H](CC(=O)NCCCCCCCCNC(=O)c1ccc3nc(N4CC5(CC(=O)N(C6CCC(=O)NC6=O)C5=O)C4)sc3c1)c1nnc(C)n1-2` (stereo partly drawn) [Example 337, N-[8-[[2-[(9S)-7-(4-chlorophenyl)-4,5,13-trimethyl-3-thia-1,8,11,12-tetraazatricyclo[8.3.0.02,6]trideca-2(6),4,7,10,12-pentaen-9-yl]acetyl]amino]octyl]-2-[6-(2,6-dioxopiperidin-3-yl)-5,7-dioxo-2,6-diazaspiro[3.4]octan-2-yl]-1,3-benzothiazole-6-carboxamide] had a pKd of over 4.30.
Turning to `CC1(N2CC=CC(=O)NC2=O)C(=O)N(CC(=O)OCc2ccccc2)c2ccccc21` (centres unmarked) [Example 283, Benzyl 2-[3-(2,7-dioxo-4H-1,3-diazepin-3-yl)-3-methyl-2-oxoindol-1-yl]acetate], the pKd was 4.00 to 4.30.
With `CN1CCN(c2cnn(C3CCCC(=O)NC3=O)c(=O)c2)CC1` (centres unmarked) [Example 272, 3-[4-(4-Methylpiperazin-1-yl)-6-oxopyridazin-1-yl]azepane-2,7-dione], the pKd was at most 4.00.
Under `COC(=O)c1cc2c(N3CCC4(CCCC(=O)NC4=O)C3)ncnc2n1C` (centres unmarked) [Example 36, Methyl 4-(6,8-dioxo-2,7-diazaspiro[4.6]undecan-2-yl)-7-methyl-pyrrolo[2,3-d]pyrimidine-6-carboxylate] stands over 4.30.
As for `Nc1nccc(N2CC3(CC(=O)N(C4CCC(=O)NC4=O)C3=O)C2)n1` (centres unmarked) [Example 230, 2-(2-Aminopyrimidin-4-yl)-6-(2,6-dioxopiperidin-3-yl)-2,6-diazaspiro[3.4]octane-5,7-dione], the pKd is at most 4.00.
Under `Cc1sc2c(c1C)C(c1ccc(Cl)cc1)=N[C@@H](CC(=O)NCCCCCCCCNC(=O)CN1CC3(CC(=O)N(C4CCC(=O)NC4=O)C3=O)C1)c1nnc(C)n1-2` (stereo partly drawn) [Example 331, 2-[(9S)-7-(4-chlorophenyl)-4,5,13-trimethyl-3-thia-1,8,11,12-tetraazatricyclo[8.3.0.02,6]trideca-2(6),4,7,10,12-pentaen-9-yl]-N-[8-[[2-[6-(2,6-dioxopiperidin-3-yl)-5,7-dioxo-2,6-diazaspiro[3.4]octan-2-yl]acetyl]amino]octyl]acetamide] stands over 4.30; under `COC(=O)c1ccc(=O)n(C2CCCC(=O)NC2=O)c1` (centres unmarked) [Example 26, Methyl 1-(2,7-dioxoazepan-3-yl)-6-oxopyridine-3-carboxylate], at most 4.00.
The compound `O=C1CCCC(NS(=O)(=O)c2cccc(Cl)c2)C(=O)N1` (centres unmarked) [Example 9, 3-Chloro-N-(2,7-dioxoazepan-3-yl) benzenesulfonamide] had a pKd of at most 4.00.
For the compound `CC(C)(C)OC(=O)CCCCCCCn1c(=O)n(C2CCCC(=O)NC2=O)c2ccccc21` (centres unmarked) [Example 195, tert-Butyl 8-[3-(2,7-dioxoazepan-3-yl)-2-oxobenzimidazol-1-yl]octanoate], the pKd is over 4.30.
As to `CC(C)(C)OC(=O)NCCCCCCCNc1ccc2nc(N3CCCC(=O)NC3=O)sc2c1` [Example 303, tert-Butyl N-[7-[[2-(2,4-dioxo-1,3-diazepan-1-yl)-1,3-benzothiazol-6-yl]amino]heptyl]carbamate], the pKd was at most 4.00.
Turning to `O=C1CCC(N2C(=O)CC3(CN(C(=O)CNC(=O)c4ccccc4)C3)C2=O)C(=O)N1` (centres unmarked) [Example 55, N-[2-[6-(2,6-Dioxopiperidin-3-yl)-5,7-dioxo-2,6-diazaspiro[3.4]octan-2-yl]-2-oxoethyl]benzamide], the pKd is at most 4.00.
As to `C[C@@H]1Cc2c([nH]c3ccccc23)[C@@H](c2cnc(N3CCC(CN(C)CCCCCCCc4cccc5c4n(C)c(=O)n5C4CCCC(=O)NC4=O)CC3)nc2)N1CC(C)(C)F` (stereo partly drawn) [Example 360-3, 3-[4-[7-[[1-[5-[(1R,3R)-2-(2-fluoro-2-methyl-propyl)-3-methyl-1,3,4,9-tetrahydropyrido[3,4-b]indol-1-yl]pyrimidin-2-yl]-4-piperidyl]methyl-methyl-amino]heptyl]-3-methyl-2-oxo-benzimidazol-1-yl]azepane-2,7-dione], the pKd was over 4.30.
The same measure for `CC(C)(C)OC(=O)NCCCNc1nccc(N2CC3(CC(=O)N(C4CCC(=O)NC4=O)C3=O)C2)n1` (centres unmarked) [Example 233]: at most 4.00; for `O=C1CCCC2(CCN(C(=O)c3nc4ccccc4o3)C2)C(=O)N1` (centres unmarked) [Example 154, 2-(1,3-Benzoxazole-2-carbonyl)-2,7-diazaspiro[4.6]undecane-6,8-dione]: at most 4.00.
The compound `Cc1sc2c(c1C)C(c1ccc(Cl)cc1)=N[C@@H](CC(=O)NCCCCCCCCCCC(=O)N1CCC(c3ccc(OC4CCCC(=O)NC4=O)cc3)CC1)c1nnc(C)n1-2` (some centres unmarked) [Example 356] showed a pKd of over 4.30.
On to `Cc1sc2c(c1C)C(c1ccc(Cl)cc1)=N[C@@H](CC(=O)NCCCNc1nccc(N3CC4(CC(=O)N(C5CCC(=O)NC5=O)C4=O)C3)n1)c1nnc(C)n1-2` (stereo partly drawn) [Example 315, 2-[(9S)-7-(4-chlorophenyl)-4,5,13-trimethyl-3-thia-1,8,11,12-tetraazatricyclo[8.3.0.02,6]trideca-2(6),4,7,10,12-pentaen-9-yl]-N-[3-[[4-[6-(2,6-dioxopiperidin-3-yl)-5,7-dioxo-2,6-diazaspiro[3.4]octan-2-yl]pyrimidin-2-yl]amino]propyl]acetamide], for which the pKd is over 4.30.
The same measure for `CC(=O)Nc1ccc(N(C)C2CCCC(=O)NC2=O)cc1` (centres unmarked) [Example 121, N-[4-[(2,7-Dioxoazepan-3-yl)-methyl-amino]phenyl]acetamide]: at most 4.00; for `CCOC(=O)c1ccc2nc(N3CC4(CC(=O)N(C5CCC(=O)NC5=O)C4)C3)sc2c1` (centres unmarked) [Example 59, Ethyl 2-[6-(2,6-dioxo-3-piperidyl)-7-oxo-2,6-diazaspiro [3.4]octan-2-yl]-1,3-benzothiazole-6-carboxylate]: over 4.30.
Compound `Nc1cccc(C2CCCC(=O)NC2=O)c1` (centres unmarked) [Example 70, 3-(3-Aminophenyl) azepane-2,7-dione] showed a pKd of at most 4.00.
`CC(C)(C)OC(=O)c1ccc(N2CCC3(CC2)COCC(=O)NC3=O)nc1` [Example 16, tert-Butyl 6-(10,12-dioxo-8-oxa-3,11-diazaspiro [5.6]dodecan-3-yl) pyridine-3-carboxylate] showed a negative logarithm of the Kd (pKd) of at most 4.00.
`COc1ccnc(N2CCC3(CCCC(=O)NC3=O)C2)c1` (centres unmarked) [Example 125, 2-(4-Methoxy-2-pyridyl)-2,7-diazaspiro [4.6]undecane-6,8-dione]: the pKd was at most 4.00.
As for `COC(=O)c1cc2ncnc(N3CCC4(CCCC(=O)NC4=O)C3)c2s1` (centres unmarked) [Example 43, Methyl 4-(6,8-dioxo-2,7-diazaspiro[4.6]undecan-2-yl)thieno[3,2-d]pyrimidine-6-carboxylate], the negative logarithm of the Kd (pKd) was 4.00 to 4.30.
As for `CC(C)(C)OC(=O)c1ccc(N2CCCC3(CCCC(=O)NC3=O)CCC2)nc1` [Example 56, tert-Butyl 6-(1,3-dioxo-2,11-diazaspiro [6.7]tetradecan-11-yl) pyridine-3-carboxylate], the negative logarithm of the Kd (pKd) is 4.00 to 4.30.
`CC(C)(C)OC(=O)CCCCCN1CC2(CC(=O)N(C3CCC(=O)NC3=O)C2=O)C1` (centres unmarked) [Example 229, tert-Butyl 6-[6-(2,6-dioxopiperidin-3-yl)-5,7-dioxo-2,6-diazaspiro[3.4]octan-2-yl]hexanoate] gave a pKd of at most 4.00.
For `Cc1sc2c(c1C)C(c1ccc(Cl)cc1)=N[C@@H](CC(=O)NCCCCCCCCNC(=O)CCc1ccc3c(N4CCCC(=O)NC4=O)nn(C)c3c1)c1nnc(C)n1-2` [Example 346, N-[8-[[2-[(9S)-7-(4-chlorophenyl)-4,5,13-trimethyl-3-thia-1,8,11,12-tetraazatricyclo[8.3.0.02,6]trideca-2(6),4,7,10,12-pentaen-9-yl]acetyl]amino]octyl]-3-[3-(2,4-dioxo-1,3-diazepan-1-yl)-1-methyl-indazol-6-yl]propanamide], the pKd was over 4.30.
The same measure for `Cn1c(=O)n(C2CCCC(=O)NC2=O)c(=O)c2ccc(CCC(=O)OC(C)(C)C)cc21` (centres unmarked) [Example 265, tert-Butyl 3-[3-(2,7-dioxoazepan-3-yl)-1-methyl-2,4-dioxoquinazolin-7-yl]propanoate]: at most 4.00.

For orientation: pKd means the Kd on a negative log10 scale, so that one unit is a factor of ten.

The values are drawn from patent US20250388593A1 (MITSUBISHI TANABE PHARMA CORPORATION, priority 2023, published 2025).
